Test results taken from article PMC5404542, “In Vitro and In Vivo Antifungal Profile of a Novel and Long-Acting Inhaled Azole, PC945, on Aspergillus fumigatus Infection” (Antimicrobial Agents and Chemotherapy, 2017).
In brackets after ≈: the same amount, converted by molar mass. Like-named read-outs stand apart in the source and are kept apart here. Marks after values point to notes of the source that are not given here.

Experiments:
[1] = test system: A. fumigatus (ATCC 13073 [strain NIH 5233]); assay: In vivo antifungal activity, intranasal treatment of temporarily neutropenic immunocompromised mice; conditions: for incidence of rolling behavior: 14 μg/mouse intranasally once daily
Description: The mice were reared on a standard diet and tap water ad libitum. […] Conidia were aseptically dislodged from the agar plates and suspended in sterile distilled water with 0.05% Tween 80 and 0.1% agar. […] On day 0, 30 μl of the conidial suspension was administered intranasally.
Test agents suspended in physiological saline were administered daily intranasally (35 μl) on days 1 to 6, and the survival of animals was recorded for 7 days. […] Deaths and the body weights of surviving animals were monitored daily. A body weight loss of >20% compared to an animal's weight on day 1 and mouse death were both defined as “dropout” events. Animals that lost >20% of their initial body weight were sacrificed. […] Bronchoalveolar lavage fluid (BALF) was collected on day 7 postinfection or on the day that the mouse dropped out of the study. The Aspergillus GM concentration in BALF was determined by use of Platelia GM-EIA kits (Bio-Rad Laboratories). The value was provided as the “cutoff index” (COI), which was calculated by the following formula: COI = OD in sample/OD in cutoff control (provided by the kit).

[2] = test system: Aspergillus niger (ATCC 1015); assay: MIC, EUCAST; format: cell-based; conditions: ATCC1015, 1 strain, EUCAST, read-out: MIC
[3] = test system: Rhizopus oryzae (ATCC 11145); assay: MIC, CLSI; format: cell-based
[4] = test system: Lichtheimia corymbifera (ATCC 7909); assay: MIC, CLSI; format: cell-based; conditions: ATCC7909, 1 strain
AfCYP51B [5] = target: T1, AfCYP51B (Aspergillus fumigatus, UniProt E9QY26); assay: A. fumigatus CYP51 binding assay (ligand titration, type II difference spectra); conditions: for Kd: 4 μM purified AfCYP51B
T1 construct: made in house
Description: A. fumigatus CYP51 binding properties were determined as described by Warrilow et al. ([35]). Test agents were titrated against 4 μM recombinant A. fumigatus CYP51A or CYP51B protein, and binding saturation curves were constructed from the change in the absorbance between the spectral peak and the trough. A rearrangement of the Morrison equation was used to determine the dissociation constant (Kd) values when ligand binding was tight ([36]).

[6] = test system: A. fumigatus hyphae (NCPF2010)
Description: (§1) The persistence of action of test agents was calculated for A. fumigatus hyphae (NCPF2010). […] The plates were incubated for exactly 20 min at 35°C and 5% CO2. After the incubation time had elapsed, all wells on the designated washout plate were aspirated, and growth medium (100 μl/well) was added across the plate. […] Resazurin (0.04%; diluted in growth medium) was added to all wells of both nonwashout and washout plates (5 μl/well) to give a final concentration of 0.002% resazurin. The plates were incubated at 35°C and 5% CO2 for 16 h. […] The percent inhibition for each well was calculated, and the IC50 was calculated from the concentration-response curve generated for each test compound by use of a four-parameter logistic equation (Dotmatics, Bishops Stortford, United Kingdom).

[7] = test system: 96 clinically isolated A. fumigatus strains; assay: MIC against 96 clinically isolated strains (EUCAST, visual)
Description: Conidia were added across the plate to a final concentration of 1 × 10^5 ml^−1. […] Determination of antifungal activity against 50 A. fumigatus clinical isolates from St. Louis Hospital (Paris, France) was performed with 96-well plates, using the modified EUCAST method in the presence of 0.5% BSA as described above. Antifungal susceptibility testing of 46 A. fumigatus isolates (obtained from the NW England Mycology Reference Centre) was performed by Evotec UK Ltd. (Manchester, United Kingdom) according to EUCAST guidelines.

AfCYP51B [8] = target: T2, AfCYP51B (Aspergillus fumigatus, UniProt E9QY26); assay: CYP51 reconstitution assay (sterol 14α-demethylase activity); format: biochemical; conditions: for IC50: 0.5 μM AfCYP51B from membrane fraction of E. coli expression clones; for Ki: suggested from tight-binding inhibition, read-out: Ki.app, CYP51B
T2 construct: made in house; host or cells: Escherichia coli (membrane fraction)
T2 sequence (E9QY26 1-524): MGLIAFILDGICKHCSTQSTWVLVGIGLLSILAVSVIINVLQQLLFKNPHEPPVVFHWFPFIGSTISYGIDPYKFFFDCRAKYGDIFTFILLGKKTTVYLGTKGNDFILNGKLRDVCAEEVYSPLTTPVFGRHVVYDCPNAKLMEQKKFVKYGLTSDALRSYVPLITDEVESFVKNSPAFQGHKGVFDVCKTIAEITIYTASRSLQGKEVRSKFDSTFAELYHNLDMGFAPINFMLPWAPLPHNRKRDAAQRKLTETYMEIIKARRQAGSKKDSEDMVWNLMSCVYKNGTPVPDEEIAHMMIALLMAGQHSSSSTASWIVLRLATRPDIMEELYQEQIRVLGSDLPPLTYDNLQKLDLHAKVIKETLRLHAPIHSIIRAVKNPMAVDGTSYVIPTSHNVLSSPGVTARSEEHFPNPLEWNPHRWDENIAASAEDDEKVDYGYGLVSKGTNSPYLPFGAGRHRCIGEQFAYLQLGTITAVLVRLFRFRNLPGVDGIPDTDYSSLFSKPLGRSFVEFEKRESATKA
Description: A CYP51 reconstitution assay system was used to determine 50% inhibitory concentrations (IC50s) ([37]). Test agent was added to a mixture of 0.5 μM CYP51, 1 μM A. fumigatus cytochrome P450 reductase isoenzyme 1 (AfCPR1), 50 μM eburicol, 4% (wt/vol) 2-hydroxypropyl-β-cyclodextrin, 0.4 mg ml^−1 isocitrate dehydrogenase, 25 mM trisodium isocitrate, 50 mM NaCl, 5 mM MgCl2, and 40 mM 3-(N-morpholino) propanesulfonic acid (MOPS) (pH ∼7.2). The mixtures were then incubated at 37°C for 10 min prior to initiation with 4 mM β-NADPHNa4 followed by shaking for 20 min at 37°C. Sterol metabolites were recovered by extraction with ethyl acetate followed by derivatization with 0.1 ml N,O-bis(trimethylsilyl)trifluoroacetamide:trimethylchlorosilane (99:1) and 0.3 ml anhydrous pyridine prior to analysis by gas chromatography-mass spectrometry.

[9] = test system: A. fumigatus hyphae (NCPF2010); assay: Persistence of action on A. fumigatus hyphae (resazurin-based microtiter assay); conditions: for IC50: Aspergillus fumigatus, NCPF2010, 16 h, read-out: Hyphae IC50, No washout; for Hyphae Fold change: washout versus no washout
Description: as §1

[10] = test system: Cladosporium argillaceum (ATCC 38013); assay: MIC, CLSI; format: cell-based; conditions: Rhizocladosporium argillaceum, ATCC38013, 1 strain
[11] = test system: Penicillium citrinum (ATCC 9849); assay: MIC, CLSI; format: cell-based; conditions: ATCC9849, 1 strain
[12] = test system: Chaetomium globosum (ATCC 44699); assay: MIC, CLSI; format: cell-based; conditions: ATCC44699, 1 strain
[13] = test system: AR Candida albicans (20183.073, 20186.025); assay: MIC, CLSI; format: cell-based; conditions: read-out: MIC (the MIC given is the MIC50)
[14] = test system: Penicillium chrysogenum (ATCC 9480); assay: MIC, CLSI; format: cell-based; conditions: ATCC9480, 1 strain
[15] = 2.8 μg/mouse intranasally once daily days 1 to 6
[16] = 14 μg/mouse intranasally once daily days 1 to 6
[17] = 70 μg/mouse intranasally once daily days 1 to 6
[18] = Rhizopus arrhizus, ATCC11145, 1 strain, read-out: MIC
[19] = 96 clinical isolates, determined visually
[20] = Aspergillus fumigatus, read-out: MIC, Geometric mean
[21] = Aspergillus fumigatus, read-out: MIC, Mode
[22] = 0.56 μg/mouse intranasally once daily days 1 to 6

Row | Compound | Median days of survival [1, 15] [days] | No. of survivors on day 7/total no. of mice [1, 15] | survivors on day 7 (%) [1, 15] [%] | incidence of rolling behavior [1] | Median days of survival [1, 16] | No. of survivors on day 7/total no. of mice [1, 16] | survivors on day 7 (%) [1, 16] [%] | MIC [2] [ng/mL] | MIC ([3]; 1 strain) [ng/mL] | MIC [3, 18] [ng/mL] | MIC [4] [ng/mL] | IC50 [6] [ng/mL] | MIC50 ([7]; Aspergillus fumigatus) [ng/mL] | MIC90 ([7]; Aspergillus fumigatus) [ng/mL] | MIC [7, 20] [ng/mL] | MIC [7, 21] [ng/mL] | IC50 (AfCYP51B [8]) [nM] | Ki (AfCYP51B [8]) [nM] | IC50 [9] [ng/mL] | MIC [10] [ng/mL] | other results
1 | CC[C@@H]([C@H](C)O)n1ncn(-c2ccc(N3CCN(c4ccc(OC[C@@H]5CO[C@@](Cn6cncn6)(c6ccc(F)cc6F)C5)cc4)CC3)cc2)c1=O [Posaconazole, posaconazole] | 5 | 1/8 | 13 | not | 6 days | 7/16 | 44 | 200 (≈ 0.285 µM) | >8000 | > 8000 | > 8000 | 2.2 (≈ 0.00314 µM) | 63 (≈ 0.0899 µM) | 500 (≈ 0.713 µM) | 100 (≈ 0.143 µM) | 32 (≈ 0.0457 µM) | 170 | < 1 | 0.45 (≈ 0.000642 µM) | 250 (≈ 0.357 µM) | Median days of survival [1, 17]: Undefined; No. of survivors on day 7/total no. of mice [1, 17]: 6/8; survivors on day 7 (%) [1, 17]: 75%; Kd (AfCYP51B [5]; Kd1, AfCYP51B, PC945: modified two-site allosteric model, posaconazole: single tight-binding Kd): 12 nM; MIC, Range [7, 19]: 16 to 2000 ng/mL; MIC ([7]; Aspergillus fumigatus, ATCC204305, read-out: MIC, quality control strain): 250 ng/mL (≈ 0.357 µM); Hyphae Fold change [9]: 4.90 fold; Hyphae Fold change ([9]; listed as posaconazole): 4.9 fold; MIC [11]: 500 ng/mL (≈ 0.713 µM); MIC [12]: 250 ng/mL (≈ 0.357 µM); MIC50 [13]: 8130 ng/mL (≈ 11.6 µM); MIC [14]: 130 ng/mL (≈ 0.186 µM)
2 | Cc1cc(N2CCN(c3ccc(C(=O)Nc4ccc(F)cc4)cc3)CC2)ccc1OC[C@@H]1CO[C@@](Cn2cncn2)(c2ccc(F)cc2F)C1 [PC945, 4-[4-(4-{[(3R,5R)-5-(2,4-difluorophenyl)-5-(1H-1,2,4-triazol-1-ylmethyl)oxolan-3-yl]methoxy}-3-methylphenyl)piperazin-1-yl]-N-(4-fluorophenyl)benzamide] | 6.5 | 5/8 | 63 | substantially inhibited | Undefined | 10/16 | 63 | > 8000 | 2000 (≈ 2.93 µM) | 2000 (≈ 2.93 µM) | > 8000 | 0.086 (≈ 0.000126 µM) | 125 (≈ 0.183 µM) | 1000 (≈ 1.46 µM) | 170 (≈ 0.249 µM) | 125 (≈ 0.183 µM) | 220 | < 1 | 0.1 (≈ 0.000146 µM) | > 8000 | Median days of survival [1, 22]: 6 days; No. of survivors on day 7/total no. of mice [1, 22]: 4/8; survivors on day 7 (%) [1, 22]: 50%; difference spectra on titration against purified CYP51B (AfCYP51B [5]): type II difference spectra; Kd (AfCYP51B [5]; Kd2, AfCYP51B, modified two-site allosteric model): 320 nM; concentration up to which growth was not completely inhibited ([7]; 5 of the 13 posaconazole-resistant isolates, NW Mycology Centre): > 8 µg/mL; fold more potent than voriconazole, based on the geometric mean ([7]; 96 clinical isolates): 2.5 fold; MIC90 [7, 19]: 1000 ng/mL (≈ 1.46 µM); MIC, Geometric mean [7, 19]: 0.17* μg/ml; fold more potent than posaconazole at inhibiting hyphal growth ([9]; no washout): 4.5 fold; fold more potent than voriconazole at inhibiting hyphal growth ([9]; no washout): 110 fold; MIC [11]: > 8000 ng/mL; MIC [12]: > 8000 ng/mL; MIC50 [13]: 8250 ng/mL (≈ 12.1 µM); MIC [14]: > 8000 ng/mL
